Holding throughout (type): binding
One assay has as its target T1, AURKBA (Homo sapiens, UniProt Q96GD4).
T1 construct: purchased in-house DSF panel (SGC-style construct names; the trailing A/B is a construct suffix)
As to the kind of experiment: DSF assay. The conditions noted are these: 20 µM compound. On the technique in general: In DSF a fluorescence change marks the thermal transition of the protein.

The next assay addresses T2, BRAFA (Homo sapiens, UniProt P15056).
T2 construct: purchased in-house DSF panel (SGC-style construct names; the trailing A/B is a construct suffix)
As to the kind of experiment: DSF assay. The following applies: 20 µM compound.

A further assay has as its target T3, CLK1 (Homo sapiens, UniProt P49759).
T3 construct: purchased in-house DSF panel (SGC-style construct names; the trailing A/B is a construct suffix)
In words: DSF assay. The conditions noted are these: 20 µM compound.

The target in the next assay is T4, DMPK1A (Homo sapiens, UniProt Q09013).
T4 construct: purchased in-house DSF panel (SGC-style construct names; the trailing A/B is a construct suffix)
T4 sequence (Q09013 1-629): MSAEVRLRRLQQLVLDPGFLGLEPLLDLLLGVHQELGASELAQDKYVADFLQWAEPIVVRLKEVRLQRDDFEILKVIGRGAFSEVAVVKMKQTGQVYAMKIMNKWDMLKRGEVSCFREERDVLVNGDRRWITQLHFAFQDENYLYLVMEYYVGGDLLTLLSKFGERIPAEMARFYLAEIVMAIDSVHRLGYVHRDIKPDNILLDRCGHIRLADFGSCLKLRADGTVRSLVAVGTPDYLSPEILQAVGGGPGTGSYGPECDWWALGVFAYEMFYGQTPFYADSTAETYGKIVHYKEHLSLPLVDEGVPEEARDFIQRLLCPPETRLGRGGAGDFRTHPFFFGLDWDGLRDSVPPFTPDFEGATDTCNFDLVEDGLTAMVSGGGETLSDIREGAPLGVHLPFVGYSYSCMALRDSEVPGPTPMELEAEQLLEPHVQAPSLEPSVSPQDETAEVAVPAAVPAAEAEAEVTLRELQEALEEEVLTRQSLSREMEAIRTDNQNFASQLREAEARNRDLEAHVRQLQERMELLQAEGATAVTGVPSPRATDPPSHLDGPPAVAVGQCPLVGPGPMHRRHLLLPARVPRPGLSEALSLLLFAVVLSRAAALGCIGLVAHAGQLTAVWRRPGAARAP
In words: DSF assay. The conditions noted are these: 20 µM compound.

For the next assay, the target named is T5, GSG2A (Homo sapiens, UniProt Q8TF76).
T5 construct: purchased in-house DSF panel (SGC-style construct names; the trailing A/B is a construct suffix)
T5 sequence (Q8TF76 465-798): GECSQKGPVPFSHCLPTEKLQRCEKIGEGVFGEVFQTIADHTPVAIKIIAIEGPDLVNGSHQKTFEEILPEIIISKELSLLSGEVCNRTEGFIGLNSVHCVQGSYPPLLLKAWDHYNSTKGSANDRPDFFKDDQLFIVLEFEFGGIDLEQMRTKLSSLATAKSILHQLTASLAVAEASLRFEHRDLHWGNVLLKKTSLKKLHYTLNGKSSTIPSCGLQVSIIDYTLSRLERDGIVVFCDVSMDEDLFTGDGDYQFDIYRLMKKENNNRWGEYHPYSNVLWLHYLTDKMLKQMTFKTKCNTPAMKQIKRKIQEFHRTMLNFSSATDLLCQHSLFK
As to the kind of experiment: DSF assay. The conditions noted are these: 20 µM compound.

A further assay addresses T6, MELKA (Homo sapiens, UniProt Q14680).
T6 construct: purchased in-house DSF panel (SGC-style construct names; the trailing A/B is a construct suffix)
As to the kind of experiment: DSF assay. The following applies: 20 µM compound.

In the next assay the target is T7, PHKG2A (Homo sapiens, UniProt P15735).
T7 construct: purchased in-house DSF panel (SGC-style construct names; the trailing A/B is a construct suffix)
T7 sequence (P15735 6-293): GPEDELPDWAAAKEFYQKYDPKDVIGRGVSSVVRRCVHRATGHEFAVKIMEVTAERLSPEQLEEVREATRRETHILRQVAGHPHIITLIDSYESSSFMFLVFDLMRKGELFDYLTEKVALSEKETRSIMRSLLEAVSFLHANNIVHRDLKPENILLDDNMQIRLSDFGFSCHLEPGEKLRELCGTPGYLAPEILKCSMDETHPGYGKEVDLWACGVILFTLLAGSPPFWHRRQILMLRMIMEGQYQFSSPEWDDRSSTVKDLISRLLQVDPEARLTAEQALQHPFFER
As to the kind of experiment: DSF assay. The conditions noted are these: 20 µM compound.

The target of another assay is T8, STK10A (Homo sapiens, UniProt O94804).
T8 construct: purchased in-house DSF panel (SGC-style construct names; the trailing A/B is a construct suffix)
In words: DSF assay. The conditions noted are these: 20 µM compound.

In a further assay the target is T9, WNK1A (Homo sapiens, UniProt Q9H4A3).
T9 construct: purchased in-house DSF panel (SGC-style construct names; the trailing A/B is a construct suffix)
In words: DSF assay. The conditions noted are these: 20 µM compound.

Another assay has as its target T10, AAK1 (Homo sapiens, UniProt Q2M2I8).
T10 construct: endogenous in cells; host or cells: Jurkat (Clone E6.1) cell lysate
As to the kind of experiment: Kinobeads selectivity profiling. The conditions noted are these: Jurkat lysate, dose series given in nM; for Kd: read-out: Kd (apparent dissociation constant, corrected for protein depletion). Here is the method:
Excitation and emission filters […]
curve. […] Measurements were
Kinobeads selectivity profiling of PROTACs
(Multiplexion, Heidelberg, Germany).
The cell lysate was ultracentrifuged and diluted
NaF, 1 mM DTT, protease inhibitors and phosphatase inhibitors to a final concentration of 5 mg/ml as determined by Bradford assay. For selectivity profiling of compounds the cell lysate (2.5 mg of total proteins per pulldown) was pre-incubated with increasing compound […]
µM) for 45 min at 4 °C in an end-over-end shaker. Subsequently, lysates were incubated with Kinobeads epsilon (17 µL settled beads) for 30 min at 4 °C. To assess the degree of protein depletion from the lysates by Kinobeads, the flow-through of the DMSO control was recovered […]
for a pulldown of pulldown experiment where the lysate was incubated a second time with fresh Kinobeads. Beads were washed in 3 steps with buffer containing 0.4%, 0.2% and no NP40.
Bound proteins were reduced with 50 mM DTT in 8 M Urea, 40 mM Tris-HCl pH 7.4 for 30 min at room temperature. After alkylation with 55 mM chloroacetamide (CAA), the Urea concentration was reduced to 1 – 2 M and proteins were digested using trypsin. Acidified peptides were desalted and concentrated using SepPak tC18 µEluation plates (Waters).
Samples were frozen, dried by vacuum centrifugation and stored at -20 °C.
LC-MS2 analysis. Peptides were measured on a Dionex Ultimate3000 nano HPLC coupled online to an Orbitrap Fusion Lumos (Thermo Fisher Scientific) mass spectrometer.
Peptides were dissolved in 0.1% formic acid and delivered to a trap column (ReproSil-pur C18-AQ, 5 μm, Dr. Maisch, 20 mm × 75 μm, self-packed) at a flow rate of 5 μL/min in LC solvent A (0.1 % formic acid).4 After 10 min of loading, peptides were transferred to an analytical column (ReproSil Gold C18-AQ, 3 μm, Dr. Maisch, 400 mm × 75 μm, self-packed) and separated using […]
acetonitrile) in LC solvent A.
The Orbitrap Fusion Lumos was operated as follows: positive polarity; spray voltage 2.1 kV, […]
A full-scan (MS1) was recorded from 360 to 1300 m/z with a resolution of 60,000 in the Orbitrap in profile mode. The MS1 AGC target was set to 4e5 and the maxIT was set to 50 ms, RF lens value was set to 50%. Based on the full scans, precursors were targeted for the MS/MS scans […]
intensity exceeded 2.5e4. The dynamic exclusion was set to 30 sec and exclude isotopes was switched on. The MS2 quadrupole isolation window was set to 1.7 m/z. Peptide fragmentation occurred in the ion routing multipole (IRM) by HCD with a fixed collision energy mode, the […]

T10 sequence (Q2M2I8 whole entry): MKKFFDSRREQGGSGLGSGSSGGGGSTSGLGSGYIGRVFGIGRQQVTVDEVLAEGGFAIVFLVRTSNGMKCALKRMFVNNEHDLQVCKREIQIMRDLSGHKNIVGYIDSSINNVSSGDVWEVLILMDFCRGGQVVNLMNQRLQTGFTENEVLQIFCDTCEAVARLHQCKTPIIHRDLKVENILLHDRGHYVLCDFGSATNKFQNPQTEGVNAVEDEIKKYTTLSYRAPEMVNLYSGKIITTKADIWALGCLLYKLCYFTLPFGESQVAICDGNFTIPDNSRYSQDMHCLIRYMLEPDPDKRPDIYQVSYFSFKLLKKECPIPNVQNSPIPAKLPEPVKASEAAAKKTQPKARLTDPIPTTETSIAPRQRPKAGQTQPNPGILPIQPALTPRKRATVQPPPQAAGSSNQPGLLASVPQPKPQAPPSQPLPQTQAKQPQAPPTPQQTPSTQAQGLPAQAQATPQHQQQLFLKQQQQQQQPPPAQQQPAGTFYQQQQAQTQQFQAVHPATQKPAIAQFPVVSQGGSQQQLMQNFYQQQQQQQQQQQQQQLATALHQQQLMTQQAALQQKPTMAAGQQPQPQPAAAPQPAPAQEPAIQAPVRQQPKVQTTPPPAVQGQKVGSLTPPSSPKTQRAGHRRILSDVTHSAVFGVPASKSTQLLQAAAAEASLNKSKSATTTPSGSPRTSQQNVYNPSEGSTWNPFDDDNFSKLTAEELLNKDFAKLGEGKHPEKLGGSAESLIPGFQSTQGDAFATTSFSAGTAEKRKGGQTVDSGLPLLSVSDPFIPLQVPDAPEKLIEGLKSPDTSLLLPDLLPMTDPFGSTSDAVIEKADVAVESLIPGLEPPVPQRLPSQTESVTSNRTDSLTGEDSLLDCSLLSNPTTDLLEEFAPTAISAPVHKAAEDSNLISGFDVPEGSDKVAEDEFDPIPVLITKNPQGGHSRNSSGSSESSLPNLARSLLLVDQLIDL
T3 sequence (P49759 148-484): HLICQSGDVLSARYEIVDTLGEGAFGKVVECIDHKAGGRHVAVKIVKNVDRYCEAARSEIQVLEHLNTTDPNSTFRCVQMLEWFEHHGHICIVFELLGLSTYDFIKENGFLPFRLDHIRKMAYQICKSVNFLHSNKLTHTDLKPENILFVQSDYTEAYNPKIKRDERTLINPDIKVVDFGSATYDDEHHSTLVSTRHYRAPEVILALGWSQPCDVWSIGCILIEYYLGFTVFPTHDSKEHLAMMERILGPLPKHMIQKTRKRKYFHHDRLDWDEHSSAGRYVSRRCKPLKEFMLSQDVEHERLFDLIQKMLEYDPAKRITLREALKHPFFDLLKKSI
T8 sequence (O94804 18-317): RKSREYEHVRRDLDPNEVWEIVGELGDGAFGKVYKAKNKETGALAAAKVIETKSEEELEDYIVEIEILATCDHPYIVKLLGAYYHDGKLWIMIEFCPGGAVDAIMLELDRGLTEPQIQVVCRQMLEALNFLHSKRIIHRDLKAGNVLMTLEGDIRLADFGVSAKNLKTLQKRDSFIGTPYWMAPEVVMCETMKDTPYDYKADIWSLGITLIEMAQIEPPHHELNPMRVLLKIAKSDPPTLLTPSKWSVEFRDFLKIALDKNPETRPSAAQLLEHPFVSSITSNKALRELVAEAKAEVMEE
T1 sequence (Q96GD4 whole entry): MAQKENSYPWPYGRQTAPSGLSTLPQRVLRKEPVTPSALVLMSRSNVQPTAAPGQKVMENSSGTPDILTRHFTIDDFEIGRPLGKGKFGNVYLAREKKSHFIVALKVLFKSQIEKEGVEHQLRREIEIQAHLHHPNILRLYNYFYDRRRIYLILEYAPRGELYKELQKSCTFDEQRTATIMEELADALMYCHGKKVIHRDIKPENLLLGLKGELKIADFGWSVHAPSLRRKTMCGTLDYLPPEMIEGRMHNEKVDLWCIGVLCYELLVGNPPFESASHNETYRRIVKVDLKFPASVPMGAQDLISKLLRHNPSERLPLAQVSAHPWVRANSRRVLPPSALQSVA
T9 sequence (Q9H4A3 206-483): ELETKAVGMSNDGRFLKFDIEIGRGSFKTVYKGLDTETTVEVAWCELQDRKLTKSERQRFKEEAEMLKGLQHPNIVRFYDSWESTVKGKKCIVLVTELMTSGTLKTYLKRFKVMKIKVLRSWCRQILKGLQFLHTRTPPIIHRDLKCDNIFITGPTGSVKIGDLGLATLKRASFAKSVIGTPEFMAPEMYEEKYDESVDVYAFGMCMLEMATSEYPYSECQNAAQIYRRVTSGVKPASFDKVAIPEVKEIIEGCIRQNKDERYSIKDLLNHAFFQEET
T2 sequence (P15056 448-723): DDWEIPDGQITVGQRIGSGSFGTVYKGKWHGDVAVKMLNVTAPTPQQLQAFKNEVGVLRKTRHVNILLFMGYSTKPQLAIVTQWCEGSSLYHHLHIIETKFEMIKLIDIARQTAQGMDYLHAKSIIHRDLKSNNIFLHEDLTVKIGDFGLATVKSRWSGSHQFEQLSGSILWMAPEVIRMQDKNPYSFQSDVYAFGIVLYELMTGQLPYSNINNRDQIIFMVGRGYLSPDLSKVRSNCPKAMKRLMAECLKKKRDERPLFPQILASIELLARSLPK
T6 sequence (Q14680 1-340): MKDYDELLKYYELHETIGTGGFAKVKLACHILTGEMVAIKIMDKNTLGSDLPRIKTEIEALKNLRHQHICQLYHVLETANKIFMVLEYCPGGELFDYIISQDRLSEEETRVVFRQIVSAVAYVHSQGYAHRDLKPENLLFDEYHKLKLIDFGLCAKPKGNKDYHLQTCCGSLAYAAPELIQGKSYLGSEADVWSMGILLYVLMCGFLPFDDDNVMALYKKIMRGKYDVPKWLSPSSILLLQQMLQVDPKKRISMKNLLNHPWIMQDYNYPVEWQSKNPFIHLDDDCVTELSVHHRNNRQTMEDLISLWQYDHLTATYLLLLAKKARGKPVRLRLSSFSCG

In the case of `CC(C)(C)OC(=O)NCCCOCCOCCOCCCNC(=O)c1cc(Nc2cc(C3CC3)[nH]n2)nc(Nc2ccc(CC#N)cc2)n1` [5-L], the ΔTm – broadly, the change in melting temperature against a reference sample – at 20 µM on AURKBA stood at 2.62 °C; at BRAFA, 2.09 °C; at CLK1 it was 13.6 °C; on DMPK1A, 3.69 °C; on GSG2A, 1.49 °C; on MELKA, 8.44 °C. Also, the figures for the shift in melting temperature (ΔTm) at 20 µM on PHKG2A, on STK10A and at WNK1A were 5.86 °C, 7.84 °C and 0.56 °C, respectively. In addition, the Kd at AAK1 stood at 35.5 nM.
With `CCOC(=O)c1cc(Nc2cc(C3CC3)[nH]n2)nc(Nc2ccc(CC#N)cc2)n1` [compound 5], the shift in melting temperature (ΔTm) at 20 µM on AURKBA worked out at 8.24 °C; at BRAFA it was 1.72 °C; at CLK1 it was 14.4 °C; at DMPK1A, 3.8 °C; at GSG2A it was 2.54 °C; on MELKA, 9.78 °C. The thermal shift (ΔTm) at 20 µM at PHKG2A came out at 7.46 °C; at STK10A it was 9.37 °C; on WNK1A, 0.55 °C. The “Kd (apparent dissociation constant, corrected for protein depletion)” value at AAK1 was 62.7409.
Consider `CC(C)(C)OC(=O)NCCOCCOCCOCCOCCC(=O)N1CCN(c2cc(Nc3cc(C4CC4)[nH]n3)nc(Nc3ccc(CC#N)cc3)n2)CC1` [4-L], for which the ΔTm at 20 µM on AURKBA worked out at 12.7 °C; on BRAFA, 1.63 °C; on CLK1 it was 12 °C; on DMPK1A it was 3.19 °C; at GSG2A it was 1.36 °C; on MELKA, 10.1 °C. Further, the thermal shift (ΔTm) at 20 µM at PHKG2A amounted to 8.76 °C; at STK10A, 11.8 °C; on WNK1A, 1.05 °C. Moreover, the Kd on AAK1 amounted to 6.67 nM.

Source of the values: PMC11851430, “Workflow for E3 Ligase Ligand Validation for PROTAC Development” (ACS Chemical Biology, 2025).
